Laboratory results: PMC9663597, “Anti-infective therapy using species-specific activators of Staphylococcus aureus ClpP” (Nature Communications, 2022)
Values after ≈ are worked out from the molar mass of the structure shown. Like-named read-outs stand apart in the source and are kept apart here.

Legend:
[1] = test system: T1, Staphylococcus aureus NRS100; assay: microbe, parasite or virus in culture; set-up: species or system Staphylococcus aureus strains; Minimum inhibitory concentration, growth inhibition of S. aureus strains in culture; conditions: NRS100, read-out: MIC
T1 construct: NRS100
Source text: (§1) Given our species-specific activators suppress the growth of S. aureus 8325-4, we then tested the antistaphylococcal spectrum of (R)- and (S)-ZG197 against a panel of S. aureus strains, including the Newman strain and multidrug-resistant MRSA strains. The USA300, NRS-1, NRS-70, NRS-100, NRS-108, and NRS-271 MRSA strains were collected from the Network on Antimicrobial Resistance in S. aureus (Supplementary Table 2). […] We also tested the antibacterial effects of our activators on five hospital-acquired, multidrug-resistant MRSA isolates in China, including XJ009, XJ036, XJ049, XJ051, and XJ052 (Supplementary Table 2). […] We next performed a minimum inhibitory concentration (MIC) assay in [compound left out] culture to determine the antibacterial effects of our activators on the S. aureus 8325-4 strain. […] To dissect whether our activators’ antistaphylococcal activity depends on ClpP in S. aureus, we determined the inhibitory effects of our activators on the ΔclpP mutant and the complemented clpP or clpPI91W mutant strains, respectively (Fig. 5a). The selective (R)- and (S)-ZG197 activators or the global activators ICG-001 and ONC212 minimally suppress the growth of ΔclpP mutant strain, and all the MICs are observed to be over 256 μg/mL. The antibacterial phenotype can be rescued in the complemented clpP strain in the presence of ClpP activators.

[2] = test system: T2, Staphylococcus aureus NRS108; assay: microbe, parasite or virus in culture; set-up: species or system Staphylococcus aureus strains; Minimum inhibitory concentration, growth inhibition of S. aureus strains in culture; conditions: NRS108, read-out: MIC
T2 construct: NRS108
Source text: as §1

[3] = test system: T3, Staphylococcus aureus NRS70; assay: microbe, parasite or virus in culture; set-up: species or system Staphylococcus aureus strains; Minimum inhibitory concentration, growth inhibition of S. aureus strains in culture; conditions: NRS70, read-out: MIC
T3 construct: NRS70
Source text: as §1

[4] = test system: T4, Staphylococcus aureus Newman; assay: microbe, parasite or virus in culture; set-up: species or system Staphylococcus aureus strains; Minimum inhibitory concentration, growth inhibition of S. aureus strains in culture; conditions: NEWMAN, read-out: MIC
T4 construct: Newman
Source text: as §1

[5] = test system: T5, Staphylococcus aureus XJ009; assay: microbe, parasite or virus in culture; set-up: species or system Staphylococcus aureus strains; Minimum inhibitory concentration, growth inhibition of S. aureus strains in culture; conditions: XJ009, read-out: MIC
T5 construct: XJ009
Source text: as §1

[6] = test system: T6, Staphylococcus aureus XJ036; assay: microbe, parasite or virus in culture; set-up: species or system Staphylococcus aureus strains; Minimum inhibitory concentration, growth inhibition of S. aureus strains in culture; conditions: XJ036, read-out: MIC
T6 construct: XJ036
Source text: as §1

[7] = target: T7, SaClpP (Staphylococcus aureus ClpP) (Staphylococcus aureus, UniProt Q2G036); assay: ITC; also BLI (Kd […]), DSF, CETSA, X-ray crystal structure; format: binding
[8] = test system: T8, Staphylococcus aureus NRS1; assay: microbe, parasite or virus in culture; set-up: species or system Staphylococcus aureus strains; Minimum inhibitory concentration, growth inhibition of S. aureus strains in culture; conditions: NRS1, read-out: MIC
T8 construct: NRS1
Source text: as §1

[9] = test system: T9, Staphylococcus aureus NRS271; assay: microbe, parasite or virus in culture; set-up: species or system Staphylococcus aureus strains; Minimum inhibitory concentration, growth inhibition of S. aureus strains in culture; conditions: NRS271, read-out: MIC
T9 construct: NRS271
Source text: as §1

[10] = test system: T10, Staphylococcus aureus USA300 LAC; assay: microbe, parasite or virus in culture; set-up: species or system Staphylococcus aureus strains; Minimum inhibitory concentration, growth inhibition of S. aureus strains in culture; conditions: USA300, read-out: MIC
T10 construct: USA300 LAC
Source text: as §1

[11] = test system: T11, Staphylococcus aureus XJ049; assay: microbe, parasite or virus in culture; set-up: species or system Staphylococcus aureus strains; Minimum inhibitory concentration, growth inhibition of S. aureus strains in culture; conditions: XJ049, read-out: MIC
T11 construct: XJ049
Source text: as §1

[12] = test system: T12, Staphylococcus aureus XJ051; assay: microbe, parasite or virus in culture; set-up: species or system Staphylococcus aureus strains; Minimum inhibitory concentration, growth inhibition of S. aureus strains in culture; conditions: XJ051, read-out: MIC
T12 construct: XJ051
Source text: as §1

[13] = test system: T13, Staphylococcus aureus XJ052; assay: microbe, parasite or virus in culture; set-up: species or system Staphylococcus aureus strains; Minimum inhibitory concentration, growth inhibition of S. aureus strains in culture; conditions: XJ052, read-out: MIC
T13 construct: XJ052
Source text: as §1

[14] = target: T7, SaClpP (Staphylococcus aureus ClpP); assay: ITC; also BLI (Kd […]), DSF, CETSA, X-ray crystal structure, alpha-casein hydrolysis EC50 […]; format: binding
[15] = target: T14, SaClpPI91W (Staphylococcus aureus, UniProt Q2G036, I91W); assay: ITC; also DSF, CETSA, alpha-casein hydrolysis; format: binding
T14 construct: gene clpP

[16] = test system: T6, Staphylococcus aureus XJ036; assay: microbe, parasite or virus in culture; set-up: species or system Staphylococcus aureus strains; Minimum inhibitory concentration, growth inhibition of S. aureus strains in culture; conditions: XJ036
Source text: as §1, with “liquid” for “[compound left out]”

[17] = test system: T11, Staphylococcus aureus XJ049; assay: microbe, parasite or virus in culture; set-up: species or system Staphylococcus aureus strains; Minimum inhibitory concentration, growth inhibition of S. aureus strains in culture; conditions: XJ049
Source text: as §1, with “liquid” for “[compound left out]”

[18] = test system: T12, Staphylococcus aureus XJ051; assay: microbe, parasite or virus in culture; set-up: species or system Staphylococcus aureus strains; Minimum inhibitory concentration, growth inhibition of S. aureus strains in culture; conditions: XJ051
Source text: as §1, with “liquid” for “[compound left out]”

[19] = test system: T13, Staphylococcus aureus XJ052; assay: microbe, parasite or virus in culture; set-up: species or system Staphylococcus aureus strains; Minimum inhibitory concentration, growth inhibition of S. aureus strains in culture; conditions: XJ052
Source text: as §1, with “liquid” for “[compound left out]”

[20] = target: T15, Staphylococcus aureus ClpP (Staphylococcus aureus), Q2G036; assay: crystal structure; SaClpP (10 mg/mL) with 5-fold ZG180, sitting drop vapor diffusion at 16 °C, 30% 2-methyl-2,4-pentanediol, 0.1 M sodium acetate/HCl pH 8.0, 20 mM calcium chloride; 1.90 Å; conditions: remark: other sources report otherwise
T15 chain: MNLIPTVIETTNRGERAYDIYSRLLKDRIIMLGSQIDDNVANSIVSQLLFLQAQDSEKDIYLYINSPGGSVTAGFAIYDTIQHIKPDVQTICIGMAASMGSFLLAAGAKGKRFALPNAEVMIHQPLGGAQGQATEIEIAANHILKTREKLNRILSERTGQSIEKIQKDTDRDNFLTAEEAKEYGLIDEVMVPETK

Molecule	MIC [1] [µg/mL]	MIC [2] [µg/mL]	MIC [3] [µg/mL]	MIC [4] [µg/mL]	MIC [5] [µg/mL]	MIC [6] [µg/mL]	MIC [8] [µg/mL]	MIC [9] [µg/mL]	MIC [10] [µg/mL]	MIC [11] [µg/mL]	MIC [12] [µg/mL]	MIC [13] [µg/mL]	other results
Cc1onc(-c2ccccc2)c1C(=O)N[C@@H]1C(=O)N2[C@@H]1SC(C)(C)[C@@H]2C(=O)O [Oxacillin]	0.1 (≈ 0.249 µM)	0.5 (≈ 1.25 µM)	2 (≈ 4.98 µM)	0.1 (≈ 0.249 µM)	4 (≈ 9.96 µM)	1 (≈ 2.49 µM)	–	–	–	–	–	–	–
CC[C@@H](C)[C@H]1C(=O)N([C@@H](C)c2cccc3ccccc23)C[C@@H]2N(C(=O)NCCCC(F)(F)F)CCC(=O)N12 [(S)-ZG197]	2 (≈ 3.76 µM)	4 (≈ 7.51 µM)	4 (≈ 7.51 µM)	2 (≈ 3.76 µM)	8 (≈ 15 µM)	4 (≈ 7.51 µM)	8 (≈ 15 µM)	4 (≈ 7.51 µM)	8 (≈ 15 µM)	8 (≈ 15 µM)	4 (≈ 7.51 µM)	4 (≈ 7.51 µM)	Kd [7]: 5000 ± 300 nM
CC[C@H](C)[C@H]1C(=O)N([C@H](C)c2cccc3ccccc23)C[C@@H]2N(C(=O)NCCCC(F)(F)F)CCC(=O)N12 [(R)-ZG197]	0.5 (≈ 0.939 µM)	0.5 (≈ 0.939 µM)	0.5 (≈ 0.939 µM)	0.5 (≈ 0.939 µM)	1 (≈ 1.88 µM)	1 (≈ 1.88 µM)	2 (≈ 3.76 µM)	2 (≈ 3.76 µM)	0.5 (≈ 0.939 µM)	0.5 (≈ 0.939 µM)	0.5 (≈ 0.939 µM)	1 (≈ 1.88 µM)	Kd [14]: 2500 ± 200 nM; Kd [15]: 930 ± 200 nM
CC[C@H]1OC(=O)[C@H](C)[C@@H](O[C@H]2C[C@@](C)(OC)[C@@H](O)[C@H](C)O2)[C@H](C)[C@@H](O[C@@H]2O[C@H](C)C[C@H](N(C)C)[C@H]2O)[C@](C)(O)C[C@@H](C)C(=O)[C@H](C)[C@@H](O)[C@]1(C)O [Erythromycin]	0.06 (≈ 0.0818 µM)	–	–	–	–	0.25 (≈ 0.341 µM)	–	0.5 (≈ 0.681 µM)	16 (≈ 21.8 µM)	–	32 (≈ 43.6 µM)	–	–
CN(C)[C@@H]1C(O)=C(C(N)=O)C(=O)[C@@]2(O)C(O)=C3C(=O)c4c(O)cccc4[C@@](C)(O)[C@H]3C[C@@H]12 [Tetracycline]	–	–	0.06 (≈ 0.135 µM)	–	–	–	–	2.5 (≈ 5.63 µM)	16 (≈ 36 µM)	–	–	–	–
O=C1C2=C(CCN(Cc3ccccc3)C2)N2CCN=C2N1Cc1ccc(C(F)(F)F)cc1 [ONC212]	0.5 (≈ 1.14 µM)	0.5 (≈ 1.14 µM)	0.25 (≈ 0.568 µM)	0.25 (≈ 0.568 µM)	0.5 (≈ 1.14 µM)	0.25 (≈ 0.568 µM)	1 (≈ 2.27 µM)	0.5 (≈ 1.14 µM)	0.5 (≈ 1.14 µM)	0.25 (≈ 0.568 µM)	1 (≈ 2.27 µM)	0.25 (≈ 0.568 µM)	–
CCn1cc(C(=O)O)c(=O)c2cc(F)c(N3CCNCC3)cc21 [Norfloxacin]	–	–	–	–	0.5 (≈ 1.57 µM)	64 (≈ 200 µM)	–	–	–	–	64 (≈ 200 µM)	–	–
CCC[C@@H]1C[C@@H](C(=O)N[C@@H]([C@H]2O[C@H](SC)[C@H](O)[C@@H](O)[C@H]2O)[C@H](C)Cl)N(C)C1 [Clindamycin]	–	–	–	–	–	0.13 (≈ 0.306 µM)	–	–	–	–	0.06 (≈ 0.141 µM)	–	–
CNC(C)[C@@H]1CC[C@@H](N)[C@@H](O[C@H]2[C@H](O)[C@@H](O[C@H]3OC[C@](C)(O)[C@H](NC)[C@H]3O)[C@H](N)C[C@@H]2N)O1 (stereo partly drawn) [Gentamicin]	–	–	–	–	–	–	–	–	–	–	–	–	MIC [16]: 0.25 µg/mL (≈ 0.523 µM); MIC [17]: 32 µg/mL (≈ 67 µM); MIC [18]: 64 µg/mL (≈ 134 µM); MIC [19]: 64 µg/mL (≈ 134 µM)
Staphylococcus aureus ClpP, Q2G036 1-195 (enzyme) MNLIPTVIETTNRGERAYDIYSRLLKDRIIMLGSQIDDNVANSIVSQLLFLQAQDSEKDIYLYINSPGGSVTAGFAIYDTIQHIKPDVQTICIGMAASMGSFLLAAGAKGKRFALPNAEVMIHQPLGGAQGQATEIEIAANHILKTREKLNRILSERTGQSIEKIQKDTDRDNFLTAEEAKEYGLIDEVMVPETK	–	–	–	–	–	–	–	–	–	–	–	–	stoichiometry N [20]: 14
